In ChEMBL document CHEMBL2440076, “New triarylpyrazoles as broad-spectrum anticancer agents: design, synthesis, and biological evaluation” (Eur J Med Chem, 2013):

Tests used:
[1] = tested on: NCI-H23; test: Growth inhibition of human NCI-H23 cells assessed as cell growth at 5X10'-6 M after 48 hrs by sulforhodamine B assay; type: functional; details: NCI-H23, 48 h, read-out: Activity
[2] = tested on: NCI-H460; test: Growth inhibition of human NCI-H460 cells assessed as cell growth at 5X10'-8 M after 48 hrs by sulforhodamine B assay; type: functional; details: NCI-H460, 48 h, read-out: Activity

Compound: COc1cc(-c2nn(-c3cccc(NC(=O)Nc4cccc(C(F)(F)F)c4)c3)cc2-c2ccncc2)ccc1Cl
- growth at 5 µM [1]: -18%
- growth at 0.05 µM [2]: 102%

Compound: O=C(Nc1cccc(-n2cc(-c3ccncc3)c(-c3ccc(Cl)c(O)c3)n2)c1)Nc1cc(C(F)(F)F)cc(C(F)(F)F)c1
- growth at 5 µM [1]: -18%
- growth at 0.05 µM [2]: 101%
